From patent US4772586A, “Novel derivatives of arginine vasopressin antagonists” (Medical College of Ohio, priority 1986, dated 1988)
*1 amine or outer side, *2 acyl side, *3 side chain or, on linkers, in order; H or OH if unused. Where a SMILES comes first, the peptide text is derived from it. Bridges are numbered along the chain shown (N, C = ends). [ ]: non-standard residue; d: D form. The star is where a group is joined. Ethylenediamine = C(CN[*:2])N[*:1]; X1 = O=C(CC1(S[*:2])CCCCC1)[*:1]; NHCH2CH2OH = OCCN*; NHBu = CCCCN*

Tests used:
[1] = system: vasopressor response to arginine vasopressin; experiment: Antagonism to the vasopressor response (Anti-VP); assay type: in vivo; settings: estimated in vivo pA2; for Anti-VP pA2: Table 1
Method: Antagonism to the vasopressor response was estimated in accordance with Dyckes et al., J. Med. Chem., vol. 17 (1974) at 969. The values are expressed as pA2 values, defined as in Schild et al., Br. J. Pharmacol., vol. 2 (1947) at 189.
(§1) Antagonistic potencies were determined and expressed as "effective doses" and pA2 values. The "effective dose" is defined as the dose (in nanomoles per kilogram) that reduces the response seen from 2x units of agonist injected 20 min after the dose of antagonist to the response with 1x units of agonist. Estimated in vivo "pA2 " values represent the negative logarithms of the effective doses, divided by the estimated volume of distribution (67 ml/kg).

[2] = system: antidiuretic response to arginine vasopressin; experiment: Antagonism of the antidiuretic response to arginine vasopressin (Anti-ADH); assay type: in vivo, rats; settings: for Anti-ADH Potency pA2: estimated in vivo pA2; for Anti-ADH pA2: Table 1, estimated in vivo pA2 = negative log of effective dose divided by volume of distribution (67 ml/kg)
Method: Activity as antidiuretic agonists was determined by intravenous injection of the compounds being evaluated in ethanol-anesthesized water-loaded rats in accordance with Sawyer, Endocrinology, vol. 63 (1958) at 694. Antagonism of the antidiuretic response to subsequent injections of arginine vasopressin was tested by the method of Sawyer et al., Science, vol. 212 (1981) at 49.
as §1

Structure (SMILES)	Anti-VP Potency pA2 ([1]; Table 4, ^+ = mixed)	Anti-ADH Potency pA2 ([2]; Table 4)	Anti-VP pA2 [1]	Anti-ADH pA2 [2]	other results
COc1ccc(C[C@@H]2NC(=O)CC3(CCCCC3)SSC[C@@H](C(=O)N3CCC[C@H]3C(=O)N[C@@H](CCCNC(=N)N)C(=O)NCCN)NC(=O)[C@H](CC(N)=O)NC(=O)[C@H](CCC(N)=O)NC(=O)[C@H](Cc3ccccc3)NC2=O)cc1 [[1(beta-mercapto-beta,beta-cyclopentamethylenepropionic acid), 2-(O-methyl)tyrosine, 8-arginine-N-(beta-amino)ethylamide, 9-desglycinamide] vasopressin] (Y(Me)FQNCPR-Ethylenediamine; linker N-5 via X1)	8.75 ± 0.06	~ 6.3			
CC[C@H](C)[C@@H]1NC(=O)[C@H](Cc2ccccc2)NC(=O)[C@@H](Cc2ccccc2)NC(=O)CC2(CCCCC2)SSC[C@@H](C(=O)N2CCC[C@H]2C(=O)N[C@@H](CCCNC(=N)N)C(=O)N[C@@H](Cc2ccccc2)C(N)=O)NC(=O)[C@H](CC(N)=O)NC1=O [Phe(NH2), [1-(beta-mercapto-beta,beta-cyclopentamethylenepropionic acid), 2-D-phenylalanine, 4-isoleucine, 9-phenylalaninamide]-arginine vasopressin] ([dF]FINCPRF-NH2; linker N-5 via X1)					Anti-VP Potency pA2 ([1]; Table 2): 7.28 ± 0.11; Anti-ADH Potency pA2 ([2]; Table 2): 7.69 ± 0.09
CCNC(=O)CNC(=O)[C@H](CCCNC(=N)N)NC(=O)[C@@H]1CCCN1C(=O)[C@@H]1CSSC2(CCCCC2)CC(=O)N[C@H]([C@H](C)CC)C(=O)N[C@@H](Cc2ccccc2)C(=O)N[C@@H]([C@@H](C)CC)C(=O)N[C@@H](CC(N)=O)C(=O)N1 [[1-(beta-mercapto-beta,beta-cyclopentamethylenepropionic acid), 2-D-isoleucine, 4-isoleucine, 9-glycine-N-ethylamide]-arginine vasopressin] ([dI]FINCPRG-NHEt; linker N-5 via X1)	6.54 ± 0.11	7.86 ± 0.05			
CCOc1ccc(C[C@H]2NC(=O)CC3(CCCCC3)SSC[C@@H](C(=O)N3CCC[C@H]3C(=O)N[C@@H](CCCNC(=N)N)C(=O)NCC(=O)NCCN)NC(=O)[C@H](CC(N)=O)NC(=O)[C@H]([C@@H](C)CC)NC(=O)[C@H](Cc3ccccc3)NC2=O)cc1 [[1-(beta-mercapto-beta,beta-cyclopentamethylenepropionic acid), 2-D-(O-ethyl)tyrosine, 4-isoleucine, 9-glycine-N-(beta-amino)ethylamide]-arginine vasopressin] ([dY](Et)FINCPRG-Ethylenediamine; linker N-5 via X1)	8.07 ± 0.03	7.86 ± 0.04			
CCOc1ccc(C[C@H]2NC(=O)CC3(CCCCC3)SSC[C@@H](C(=O)N3CCC[C@H]3C(=O)N[C@@H](CCCNC(=N)N)C(=O)NCCO)NC(=O)[C@H](CC(N)=O)NC(=O)[C@H]([C@@H](C)CC)NC(=O)[C@H](Cc3ccccc3)NC2=O)cc1 [[1-(beta-mercapto-beta,beta-cyclopentamethylenepropionic acid), 2-D-(O-ethyl)tyrosine, 4-isoleucine, 8-arginine-N-(beta-hydroxy)ethylamide, 9-desglycinamide] vasopressin] ([dY](Et)FINCPR-NHCH2CH2OH; linker N-5 via X1)	7.89 ± 0.09	7.82 ± 0.06			
CCOc1ccc(C[C@@H]2NC(=O)CC3(CCCCC3)SSC[C@@H](C(=O)N3CCC[C@H]3C(=O)N[C@@H](CCCNC(=N)N)C(N)=O)NC(=O)[C@H](CC(N)=O)NC(=O)[C@H](C(C)C)NC(=O)[C@H](Cc3ccccc3)NC2=O)cc1 [desGly^9 d(CH2)5 [Tyr(Et)^2]VAVP, [1-(beta-mercapto-beta,beta-cyclopentamethylenepropionic acid), 2-(O-ethyl)tyrosine, 4-valine, 9-desglycine]-arginine vasopressin] (Y(Et)FVNCPR-NH2; linker N-5 via X1)			8.18 ± 0.02	7.89 ± 0.09	
CC(C)[C@@H]1NC(=O)[C@H](Cc2ccccc2)NC(=O)[C@@H](Cc2ccccc2)NC(=O)CC2(CCCCC2)SSC[C@@H](C(=O)N2CCC[C@H]2C(=O)N[C@@H](CCCNC(=N)N)C(=O)O)NC(=O)[C@H](CC(N)=O)NC1=O [desGly(NH2)^9 d(CH2)5 [D-Phe^2]VAVP, [1-(beta-mercapto-beta,beta-cyclopentamethylenepropionic acid), 2-D-phenylalanine, 4-valine, 9-desglycinamide]-arginine vasopressin] ([dF]FVNCPR-OH; linker N-5 via X1)			7.93 ± 0.05	7.75 ± 0.11	
CC[C@H](C)[C@@H]1NC(=O)[C@H](Cc2ccccc2)NC(=O)[C@@H](Cc2ccccc2)NC(=O)CC2(CCCCC2)SSC[C@@H](C(=O)N2CCC[C@H]2C(=O)N[C@@H](CCCNC(=N)N)C(N)=O)NC(=O)[C@H](CC(N)=O)NC1=O [desGly^9 d(CH2)5 [D-Phe^2,Ile^ 4]AVP, [1-(beta-mercapto-beta,beta-cyclopentamethylenepropionic acid), 2-D-phenylalanine, 4-isoleucine, 9-desglycine]-arginine vasopressin] ([dF]FINCPR-NH2; linker N-5 via X1)			7.84 ± 0.03	8.05 ± 0.09	
CCOc1ccc(C[C@H]2NC(=O)CC3(CCCCC3)SSC[C@@H](C(=O)N3CCC[C@H]3C(=O)N[C@@H](CCCNC(=N)N)C(=O)NCC(=O)NC)NC(=O)[C@H](CC(N)=O)NC(=O)[C@H](C(C)C)NC(=O)[C@H](Cc3ccccc3)NC2=O)cc1 [[1-(beta-mercapto-beta,beta-cyclopentamethylenepropionic acid), 2-D-(O-ethyl)tyrosine, 4-valine, 9-glycine-N-methylamide]-arginine vasopressin] ([dY](Et)FVNCPRG-NHMe; linker N-5 via X1)	7.71 ± 0.04	7.58 ± 0.06			
CC[C@H](C)[C@@H]1NC(=O)[C@H](Cc2ccccc2)NC(=O)[C@@H](Cc2ccccc2)NC(=O)CC2(CCCCC2)SSC[C@@H](C(=O)N2CCC[C@H]2C(=O)N[C@@H](CCCNC(=N)N)C(=O)NCC(=O)O)NC(=O)[C@H](CC(N)=O)NC1=O [d(CH2)5 [D-Phe^2,Ile^ 4]AVP acid, [1-(beta-mercapto-beta,beta-cyclopentamethylenepropionic acid), 2-D-phenylalanine, 4-isoleucine, 9-glycine]-arginine vasopressin] ([dF]FINCPRG-OH; linker N-5 via X1)			6.94 ± 0.08	7.11 ± 0.11	
CC(C)[C@@H]1NC(=O)[C@H](Cc2ccccc2)NC(=O)[C@@H](Cc2ccccc2)NC(=O)CC2(CCCCC2)SSC[C@@H](C(=O)N2CCC[C@H]2C(=O)N[C@@H](CCCNC(=N)N)C(=O)NCC(N)=O)NC(=O)[C@H](CC(N)=O)NC1=O [d(CH2) 5 [D-Phe^2]VAVP, [1-(beta-mercapto-beta,beta-cyclopentamethylenepropionic acid), 2-D-phenylalanine, 4-valine]-arginine vasopressin, reference compound] ([dF]FVNCPRG-NH2; linker N-5 via X1)			8.06 ± 0.03	8.06 ± 0.09	
CCCCNC(=O)CNC(=O)[C@H](CCCNC(=N)N)NC(=O)[C@@H]1CCCN1C(=O)[C@@H]1CSSC2(CCCCC2)CC(=O)N[C@H](Cc2ccccc2)C(=O)N[C@@H](Cc2ccccc2)C(=O)N[C@@H]([C@@H](C)CC)C(=O)N[C@@H](CC(N)=O)C(=O)N1 [[1-(beta-mercapto-beta,beta-cyclopentamethylenepropionic acid), 2-D-phenylalanine, 4-isoleucine, 9-glycine-N-(n-butyl)amide]-arginine vasopressin] ([dF]FINCPRG-NHBu; linker N-5 via X1)	6.80 ± 0.08	7.66 ± 0.05			
CCOc1ccc(C[C@H]2NC(=O)CC3(CCCCC3)SSC[C@@H](C(=O)N3CCC[C@H]3C(=O)N[C@@H](CCCNC(=N)N)C(=O)NCCN)NC(=O)[C@H](CC(N)=O)NC(=O)[C@H]([C@@H](C)CC)NC(=O)[C@H](Cc3ccccc3)NC2=O)cc1 [[1-(beta-mercapto-beta,beta-cyclopentamethylenepropionic acid), 2-D-(O-ethyl)tyrosine, 4-isoleucine, 8-arginine-N-(beta-amino)ethylamide, 9-desglycinamide] vasopressin] ([dY](Et)FINCPR-Ethylenediamine; linker N-5 via X1)	8.33 ± 0.06	8.00 ± 0.12			
CC[C@H](C)[C@@H]1NC(=O)[C@H](Cc2ccccc2)NC(=O)[C@@H](Cc2ccccc2)NC(=O)CC2(CCCCC2)SSC[C@@H](C(=O)N2CCC[C@H]2C(=O)N[C@@H](CCCNC(=N)N)C(=O)NCC(=O)NCC(N)=O)NC(=O)[C@H](CC(N)=O)NC1=O [[1-(beta-mercapto-beta,beta-cyclopentamethylenepropionic acid), 2-D-phenylalanine, 4-isoleucine, 9-glycine]-arginine vasopressinyl glycinamide] ([dF]FINCPRGG-NH2; linker N-5 via X1)	7.72	7.83 ± 0.04			
